Here are results for two substances from patent US8440683B2, “Pharmaceutical preparation for treating demyelinating diseases of the nervous system; preparation promoting restoration of the myelin sheath of nerve fibers; and a method for treating demyelinating diseases of the nervous system” (priority 2007, dated 2013).

The conditions of data set [1]: clinical scale; abscesses, hematomas, elevated arterial pressure, allergic reactions etc.; cited from earlier work.
A short description of data set [2]: treatment of myelopathy patients with lateral amyotrophic syndrome. The conditions noted are these: intramuscular 2.0 ml of 0.25% solution twice a day, two to three weeks. The class given is in vivo. Here is the method: Administration of stephaglabrin sulfate intramuscularly in 2.0 ml doses of a 0.25% solution twice a day for two to three weeks in treating myelopathy patients showing elements of a lateral amyotrophyic syndrome.

The next data set relates to Schwann cells. Briefly: stimulation of Schwann cell growth and myelin formation. The conditions noted are these: inventors' experiments.
Data set [3] deals with connective tissue development. Particulars: damage to a nerve; U.S.S.R. Patent No. 1,713,151; cited from earlier work.
Data set [4] has as its system true and false cholinesterase. Particulars: cited from earlier work.
The nature of data set [5]: treatment of patients with cerebrospinal form of disseminated sclerosis. The data set is classed as in vivo. The conditions noted are these: disseminated sclerosis with tetraparesis, cerebello-ataxic syndrome, pelvic disorders. The text has this: The preparation was effective in patients suffering from the cerebrospinal form of disseminated sclerosis combined with tetraparesis, cerebello-ataxic syndrome, and pelvic disorders.

For another data set, the system named is smooth muscles. Particulars: cited from earlier work.
For data set [6] the following is noted: in vivo; cited from earlier work.
Data set [7] is described as follows: treatment of amyotrophic lateral sclerosis patients. The data set is classed as in vivo. The text has this:
Another patient had their disordered breathing, which could not be corrected by other preparations, restored.

The nature of data set [8]: treatment of syringomyelia patients. The class given is in vivo. Here is the method:
The preparation was administered to 37 patients suffering from syringomyelia.
Along with the administration of the preparation, all the patients were directed to take massage sessions, physiotherapy exercises, spine ionization by potassium iodide, and vitamins B1 and B12. […] Special attention must be drawn to the fact that the malfunctions are corrected in patients showing early signs of syringobulbia.

Another data set concerns degenerating nerves. In words: myelination of degenerating nerves in rats. The data set is classed as in vivo. The text has this:
By comparison, myelination of nerve fibers proceeded slowly in control animals that were not treated with stephaglabrin sulfate and was not completed even within 100 to 120 days.

For data set [9] the following is noted: in vivo; cited from earlier work. This is another data set of the same source.
For data set [10] the following is noted: in water and aqueous alcohol; cited from earlier work.

For the substance glatiramer acetate [Copaxone-Teva], in data set [1], the “side reactions on clinical use” value is given as “Numerous side reactions”.

As to stephaglabrin sulfate, the clinical effects observed entry in data set [2] is “disappearance of fibrillations, reduction in amyotrophy intensity and polykinetics of proprioceptive reflexes, and growth of muscle power in the arms”. Moreover, in the data set on Schwann cells, the “growth of Schwann cells and subsequent myelin formation” value is given as “stimulate the growth of Schwann cells”. In addition, the “activity in relation to connective tissue development, preventing formation of scars” value in data set [3] is “specific inhibiting activity”. In addition, the “activity of true and false cholinesterase” value in [4] is recorded as “suppresses the activity”. For the same substance, in data set [5], the clinical effectiveness entry is on record as “effective”. Further, the “effect on smooth muscles” value in the data set on smooth muscles was “tonic effect”. For the same substance, the arterial pressure result in data set [6] is given as “lowers arterial pressure”. In data set [7] (14 patients with severe amyotrophic lateral sclerosis), the therapeutic effect result is on record as “positive therapeutic effect”. For the same substance, the disordered breathing result in [7] (another patient, not corrected by other preparations) is listed as “restored”. Further, the “patients with strength build-up in the extremities and reduced bulbar disorders” value in [7] (of 14 patients) is given as 12 patients. Further, the swallowing result in data set [7] (one patient with aphonia and dysphagia, after 10 days of 2 ml twice a day) was “significant improvement in swallowing”. Also, in [8] (from the start of treatment, 2 ml twice a day plus massage, physiotherapy, vitamins), the “time to lowered levels of sensing disorders” value was “within two to three weeks”. Further, the “patients with a positive effect” value in [8] (of 37 syringomyelia patients) came to 28 patients. In addition, the “onset of decline of sympathalgic pain intensity” value in data set [8] (some patients) is reported as 10th to 12th day. Moreover, the “start of myelination of degenerating nerves” value in the data set with degenerating nerves (0.1 to 1.0 mg/kg, versus untreated animals) is “stimulates an early start of myelination”. For the same substance, the “speed of impulse passage in the nerve” value in the data set with degenerating nerves (electrophysiological studies) is “complete recovery”. For the same substance, the toxicity entry in data set [9] is reported as “low toxicity”. The solubility result in data set [10] is “well soluble”.
